Data as given in patent publication US10993917B2, “Nanocomplex” (AGENCY FOR SCIENCE, TECHNOLOGY AND RESEARCH, priority 2016, dated 2021).

Key:
[1] = Biodistribution study in SKOV-3 tumor-bearing mice; format: in vivo, athymic NCR nude mice; details: intravenous, 2 mg Pt kg^−1, 4 hours post-injection
Protocol: All animal experiments were performed according to the protocols approved by the IACUC at the Biological Resource Centre, Singapore. Female athymic NCR nude mice (CrTac:Ncr-Foxn1^nu, 5-6 weeks old) were inoculated subcutaneously with 1×10^7 SKOV-3 cells suspended in 100 μL of PBS and 100 μL of Matrigel (BD Bioscience, of the United States of America) in the right flank. […] At predetermined time points, blood and organs were collected (4 mice per time point). The collected plasma and organs were decomposed in 65% (v/v) nitric acid at 60° C. for 2 hours, and the platinum concentration was measured by ICP-MS.

[2] = Blood chemistry analysis 38 days after first treatment; format: in vivo, athymic NCR mice; details: 38-days endpoint, 1 mg Pt kg^−1 i.v. days 0, 7, 14
From the text: The athymic NCR mice that received different treatments were sacrificed to collect blood, tumor, and organs 38 days after the first treatment. For blood chemistry analysis, blood samples were collected in heparinized tubes and then examined using the Vetscan VS2 blood chemistry analyzer (Abaxis Inc., of California of the United States of America). The levels of alkaline phosphatase (ALP), alanine aminotransferase (ALT) and other serum markers were examined. The excised tumors and organs were fixed with neutral buffered formalin, embedded in paraffin blocks, and then sectioned for hematoxylin and eosin (H&E) staining.

[3] = Drug release study by dialysis in PBS pH 7.4 (physiological stability); format: physicochemical; details: 10 mM PBS pH 7.4, 37° C.
Protocol: The dialysis tube was immersed in total 30 mL of 10 mM PBS (pH 7.4). The dialysis tube was then incubated at 37° C. on an orbital shaker at 50 rpm. […] The dialysis tube was then immersed in total 30 mL of 100 mM phosphate buffer (pH 6) at 37° C. At predetermined time points, the amount of cisplatin released in the medium was determined by ICP-MS as described above. […] This rapid drug leakage was caused by the dissociation of HA/cisplatin complexes via the replacement of the carboxylate ligand of Pt(II) with the chloride ion in PBS.

[4] = test system: SKOV-3 human ovarian cancer xenograft; test: Antitumor efficacy study in a subcutaneous xenograft model; format: in vivo, NCR mice; details: 1 mg Pt kg^−1 i.v. on days 0, 7 and 14
Protocol: Female NCR mice bearing a subcutaneous SKOV-3 human ovarian cancer xenograft (120-150 mm^3) were randomly allocated to different treatments (10 mice per group). […] An isotonic dextrose solution (5% w/v) was used as a control. The tumor volume (mm^3) was calculated from the following formula: volume=(length×width^2)/2. In addition, a change in the body weight in the course of treatment was monitored as a measure of systemic toxicity.

N.N.[Cl][Pt][Cl] [free cisplatin, cisplatin]
cisplatin dose delivered into the tumor mass [1]: 1.53±0.48 % ID/g | platinum accumulation in the liver [1]: 1.31±0.25 % ID/g | ALP level in blood [2]: elevated | ALT level in blood [2]: elevated | time to complete release from the dialysis tube [3]: ≤ 6 h | tumor growth [4]: slightly delayed the tumor growth | mean tumor volume ([4]; day 38): 299.7±117.7 mm^3
